Columns and labels:
Assay type in all cases: cell-based, Chinese Hamster
[1] = system: CHO cell line producing mAb #1; assay: Example 7 culture growth & productivity
Protocol: (§1) For all studies with CHO cell lines described throughout this invention, samples were collected daily and measured for cell density and viability using a Cedex cell counter. Retention samples for titer analysis via Poros A method were collected by centrifugation at 12,000 RPM for 5 min when the culture viability began declining. The cultures were harvested by collecting 125 mL aliquots and centrifuging at 3,000 RPM for 30 min when culture viability was near or below 50%. All supernatants were stored at −80° C. until analysis.
Growth and production media for the CHO cell line producing mAb #1 were prepared using a proprietary Life Technologies Gibco chemically defined media, GIA-1. […] All media were filtered through Corning 0.5 L or 1 L filter systems (0.22 μm PES) and stored at 4° C. until use.
Upon thaw, cells were expanded for 6 (3 day each) passages in a combination of 250 mL, 500 mL, and 1000 mL Corning vented non-baffled shake flasks. Production cultures were initiated in duplicate 500 mL Corning vented non-baffled shake flasks (200 mL working volume) at an initial VCD of approximately 0.5×10^6 cells/mL. Cultures were maintained on orbital shakers at 125 RPM in a dry incubator at 35° C. and 5% CO2. A glucose solution (1.25% (v/v) of 40% solution) was fed when the media glucose concentration fell below 3 g/L. […]

[2] = system: adalimumab-producing CHO cell line; assay: Example 3 oligosaccharide analysis, hydrolysate-based media, batch shake flasks
Protocol: as §1
(§2) For all studies, the harvest samples were Protein A purified and prepared for the oligosaccharide assay using the following procedures. As a first step in the process of establishing the identity and quantifying the oligosaccharides, they are released from the protein by enzymatic digestion with N-glycanase. Once the glycans are released, the free reducing end of each glycan is labeled by reductive amination with a fluorescent tag, 2-aminobenzamide (2-AB). The resulting labeled glycans are separated by normal-phase HPLC (NP-HPLC) in acetonitrile: 50 mM ammonium formate, pH 4.4, and detected by a fluorescence detector. Quantitation is based on the relative area percent of detected sugars. Throughout this invention, the relative area percentages of the agalactosyl fucosylated biantennary oligosaccharides, denoted as NGA2F+NGA2F-GlcNAc sum, and the galactose-containing fucosylated biantennary oligosaccharides NA1F+NA2F sum are reported and discussed.
All media were filtered through Corning 0.5 L or 1 L filter systems (0.22 μm PES) and stored at 4° C. until use.
Production cultures were initiated in duplicate 500 mL Corning vented non-baffled shake flasks (200 mL working volume) at an initial VCD of approximately 0.5×10^6 cells/mL. Cultures were maintained on orbital shakers at 110 RPM in a dry incubator at 35° C. and 5% CO2. A glucose solution (1.25% (v/v) of 40% solution) was fed when the media glucose concentration fell below 3 g/L.

[3] = system: adalimumab-producing CHO cell line; assay: Example 2 oligosaccharide analysis, HyClone CDM4CHO, batch shake flasks
Protocol: as §1, §2
Growth and production media for the adalimumab-producing CHO cell line were prepared using Thermo Scientific HyClone chemically defined media CDM4CHO without L-glutamine (Catalogue #SH30558.02). […] All media were filtered through Corning 0.5 L or 1 L (0.22 μm PES) filter systems and stored at 4° C. until use.
Upon thaw, cells were adapted to and expanded in HyClone CDM4CHO media for 5 (2 to 3 day each) passages in a combination of 250 mL, 500 mL, and 1000 mL Corning vented non-baffled shake flasks. Production cultures were initiated in duplicate 500 mL Corning vented non-baffled shake flasks (200 mL working volume) at an initial VCD of approximately 0.5×10^6 cells/mL. Cultures were maintained on orbital shakers at 110 RPM in a dry incubator at 35° C. and 5% CO2. A glucose solution (1.25% (v/v) of 40% solution) was fed when the media glucose concentration fell below 3 g/L. […]

[4] = system: adalimumab-producing CHO cell line #2; assay: Example 4 culture growth & productivity; settings: galactose 0 to 20 mM and/or manganese chloride 0 to 40 μM
Protocol: as §1
(§3) Growth and production media for the adalimumab-producing CHO cell line #2 were prepared using a proprietary Life Technologies Gibco chemically defined media, GIA-1. […] All media were filtered through Corning 0.5 L or 1 L filter systems (0.22 μm PES) and stored at 4° C. until use.
Upon thaw, cells were expanded for 5 to 8 (2 to 3 day each) passages in a combination of 250 mL, 500 mL, and 1000 mL Corning vented non-baffled shake flasks. Production cultures were initiated in duplicate 500 mL Corning vented non-baffled shake flasks (200 mL working volume) at an initial VCD of approximately 0.5×10^6 cells/mL. Cultures were maintained on orbital shakers at 180 RPM in a dry incubator at 35° C. and 5% CO2. A glucose solution (1.25% (v/v) of 40% solution) was fed when the media glucose concentration fell below 3 g/L. […]

[5] = system: adalimumab-producing CHO cell line #2; assay: Example 4 oligosaccharide analysis, CDM GIA-1, batch shake flasks
Protocol: as §1, §2, §3
Upon thaw, cells were expanded for 5 to 8 (2 to 3 day each) passages in a combination of 250 mL, 500 mL, and 1000 mL Corning vented non-baffled shake flasks. Production cultures were initiated in duplicate 500 mL Corning vented non-baffled shake flasks (200 mL working volume) at an initial VCD of approximately 0.5×10^6 cells/mL. Cultures were maintained on orbital shakers at 180 RPM in a dry incubator at 35° C. and 5% CO2. A glucose solution (1.25% (v/v) of 40% solution) was fed when the media glucose concentration fell below 3 g/L.
Galactose was supplemented at the following levels in production media: 0, 10, and 20 mM. […] This study was run in 2 blocks.

[6] = manganese chloride alone, range 0 to 40 μM

O=C[C@H](O)[C@@H](O)[C@@H](O)[C@H](O)CO [galactose, D(+)Galactose]
culture growth ([1]; galactose alone): grew to a lower maximum VCD compared to the control
maximum decrease in the NGA2F+NGA2F-GlcNac sum ([2]; galactose alone up to 40 mM): 4%
maximum increase in the NA1F+NA2F sum ([2]; galactose alone up to 40 mM): 4%
decrease in the NGA2F+NGA2F-GlcNac sum ([3]; 40 mM galactose alone): 6%
increase in the NA1F+NA2F sum ([3]; galactose alone up to 40 mM): 6%
maximum decrease in the NGA2F+NGA2F-GlcNac sum ([3]; galactose alone up to 40 mM): 6%
culture growth, viability profiles, and harvest titer [4]: comparable to the control cultures
decrease in the NGA2F+NGA2F-GlcNac sum ([5]; 10 mM galactose alone): 6%
maximum decrease in the NGA2F+NGA2F-GlcNac sum ([5]; 20 mM galactose alone): 9%
maximum increase in the NA1F+NA2F sum ([5]; 20 mM galactose alone): 10%

Manganese (II) Chloride [manganese chloride]
culture growth ([1]; manganese chloride alone 0 to 20 μM): grew comparable to the control cultures
decrease in the NGA2F+NGA2F-GlcNac sum ([2]; manganese chloride alone, range 0 to 40 μM, within assay variability): approximately 1%
decrease in the NGA2F+NGA2F-GlcNac sum ([3]; 40 μM manganese chloride alone): 5%
maximum decrease in the NGA2F+NGA2F-GlcNac sum [3, 6]: 5%
maximum increase in the NA1F+NA2F sum [3, 6]: 4%
culture growth, viability profiles, and harvest titer [4]: comparable to the control cultures
decrease in the NGA2F+NGA2F-GlcNac sum ([5]; 10 μM manganese chloride alone): 18%
maximum decrease in the NGA2F+NGA2F-GlcNac sum ([5]; 20 μM manganese chloride alone): 22%
maximum increase in the NA1F+NA2F sum ([5]; 20 μM manganese chloride alone): 23%
